Experimental data as given in PubChem BioAssay AID1259407 (Chemical Carcinogenesis Research Information System (CCRIS), 2018).
Calls of active or inactive are those of the source. The rule behind the calls is not given here.

System: CCRIS mutagenicity, Ames/micronucleus/aberration tests
Assay: CCRIS mutagenicity studies
[1] = Test System: AMES SALMONELLA TYPHIMURIUM, Strain/Indicator: TA97, Metabolic Activation: NONE, Method: PREINCUBATION
[2] = Test System: AMES SALMONELLA TYPHIMURIUM, Strain/Indicator: TA98, Metabolic Activation: NONE, Method: STANDARD PLATE
[3] = Test System: AMES SALMONELLA TYPHIMURIUM, Strain/Indicator: TA100, Metabolic Activation: NONE, Method: STANDARD PLATE
[4] = Test System: AMES SALMONELLA TYPHIMURIUM, Strain/Indicator: TA1535, Metabolic Activation: NONE, Method: STANDARD PLATE

Measured: mutagenic call

O=S(O)S(=O)(=O)O
inactive: [1] inactive; negative | Test System: AMES SALMONELLA TYPHIMURIUM, Strain/Indicator: TA97, Metabolic Activation: RAT, LIVER, S-9, AROCLOR 1254, Method: PREINCUBATION inactive; negative | [2] inactive; negative | Test System: AMES SALMONELLA TYPHIMURIUM, Strain/Indicator: TA98, Metabolic Activation: RAT, LIVER, S-9, AROCLOR 1254, Method: STANDARD PLATE inactive; negative | [3] inactive; negative | Test System: AMES SALMONELLA TYPHIMURIUM, Strain/Indicator: TA100, Metabolic Activation: RAT, LIVER, S-9, AROCLOR 1254, Method: STANDARD PLATE inactive; negative | Test System: AMES SALMONELLA TYPHIMURIUM, Strain/Indicator: TA102, Metabolic Activation: NONE, Method: PREINCUBATION inactive; negative | Test System: AMES SALMONELLA TYPHIMURIUM, Strain/Indicator: TA102, Metabolic Activation: RAT, LIVER, S-9, AROCLOR 1254, Method: PREINCUBATION inactive; negative | [4] inactive; negative | Test System: AMES SALMONELLA TYPHIMURIUM, Strain/Indicator: TA1535, Metabolic Activation: RAT, LIVER, S-9, AROCLOR 1254, Method: STANDARD PLATE inactive; negative | Test System: AMES SALMONELLA TYPHIMURIUM, Strain/Indicator: TA1537, Metabolic Activation: NONE, Method: STANDARD PLATE inactive; negative | Test System: AMES SALMONELLA TYPHIMURIUM, Strain/Indicator: TA1537, Metabolic Activation: RAT, LIVER, S-9, AROCLOR 1254, Method: STANDARD PLATE inactive; negative | Test System: AMES SALMONELLA TYPHIMURIUM, Strain/Indicator: TA1538, Metabolic Activation: NONE, Method: STANDARD PLATE inactive; negative | Test System: AMES SALMONELLA TYPHIMURIUM, Strain/Indicator: TA1538, Metabolic Activation: RAT, LIVER, S-9, AROCLOR 1254, Method: STANDARD PLATE inactive; negative | Test System: E. COLI, Strain/Indicator: WP2, Metabolic Activation: NONE, Method: STANDARD PLATE inactive; negative | Test System: E. COLI, Strain/Indicator: WP2, Metabolic Activation: RAT, LIVER, S-9, AROCLOR 1254, Method: STANDARD PLATE inactive; negative
active: End Point: In vitro chromosomal aberration, Test System: Human lymphocytes, Metabolic Activation: None active; positive (structural changes) | End Point: In vitro micronucleus, Test System: Human lymphocytes, Metabolic Activation: None active; positive | End Point: In vivo micronucleus, Test System: Bone marrow cells, Species: Rat, Strain/Sex: Rattus norvegicus var. albino / Male, female, Route: Intraperitoneal active; positive (structural changes)

CCC(C)(C)C
inactive: Test System: AMES SALMONELLA TYPHIMURIUM, Strain/Indicator: TA97, Metabolic Activation: HAMSTER, LIVER, S-9, AROCLOR 1254 (10 OR 30%), Method: PREINCUBATION inactive; negative | [1] inactive; negative | Test System: AMES SALMONELLA TYPHIMURIUM, Strain/Indicator: TA97, Metabolic Activation: RAT, LIVER, S-9, AROCLOR 1254 (10 OR 30%), Method: PREINCUBATION inactive; negative | Test System: AMES SALMONELLA TYPHIMURIUM, Strain/Indicator: TA98, Metabolic Activation: HAMSTER, LIVER, S-9, AROCLOR 1254 (10%), Method: PREINCUBATION inactive; negative | Test System: AMES SALMONELLA TYPHIMURIUM, Strain/Indicator: TA98, Metabolic Activation: HAMSTER, LIVER, S-9, AROCLOR 1254 (30%), Method: DESICCATOR inactive; negative | Test System: AMES SALMONELLA TYPHIMURIUM, Strain/Indicator: TA98, Metabolic Activation: HAMSTER, LIVER, S-9, AROCLOR 1254 (30%), Method: PREINCUBATION inactive; negative | Test System: AMES SALMONELLA TYPHIMURIUM, Strain/Indicator: TA98, Metabolic Activation: NONE, Method: DESICCATOR inactive; negative | Test System: AMES SALMONELLA TYPHIMURIUM, Strain/Indicator: TA98, Metabolic Activation: NONE, Method: PREINCUBATION inactive; negative | Test System: AMES SALMONELLA TYPHIMURIUM, Strain/Indicator: TA98, Metabolic Activation: RAT, LIVER, S-9, AROCLOR 1254 (10%), Method: PREINCUBATION inactive; negative | Test System: AMES SALMONELLA TYPHIMURIUM, Strain/Indicator: TA98, Metabolic Activation: RAT, LIVER, S-9, AROCLOR 1254 (30%), Method: DESICCATOR inactive; negative | Test System: AMES SALMONELLA TYPHIMURIUM, Strain/Indicator: TA98, Metabolic Activation: RAT, LIVER, S-9, AROCLOR 1254 (30%), Method: PREINCUBATION inactive; negative | Test System: AMES SALMONELLA TYPHIMURIUM, Strain/Indicator: TA100, Metabolic Activation: HAMSTER, LIVER, S-9, AROCLOR 1254 (10%), Method: PREINCUBATION inactive; negative | Test System: AMES SALMONELLA TYPHIMURIUM, Strain/Indicator: TA100, Metabolic Activation: HAMSTER, LIVER, S-9, AROCLOR 1254 (30%), Method: DESICCATOR inactive; negative | Test System: AMES SALMONELLA TYPHIMURIUM, Strain/Indicator: TA100, Metabolic Activation: HAMSTER, LIVER, S-9, AROCLOR 1254 (30%), Method: PREINCUBATION inactive; negative | Test System: AMES SALMONELLA TYPHIMURIUM, Strain/Indicator: TA100, Metabolic Activation: NONE, Method: DESICCATOR inactive; negative | Test System: AMES SALMONELLA TYPHIMURIUM, Strain/Indicator: TA100, Metabolic Activation: NONE, Method: PREINCUBATION inactive; negative | Test System: AMES SALMONELLA TYPHIMURIUM, Strain/Indicator: TA100, Metabolic Activation: RAT, LIVER, S-9, AROCLOR 1254 (10%), Method: PREINCUBATION inactive; negative | Test System: AMES SALMONELLA TYPHIMURIUM, Strain/Indicator: TA100, Metabolic Activation: RAT, LIVER, S-9, AROCLOR 1254 (30%), Method: DESICCATOR inactive; negative | Test System: AMES SALMONELLA TYPHIMURIUM, Strain/Indicator: TA100, Metabolic Activation: RAT, LIVER, S-9, AROCLOR 1254 (30%), Method: PREINCUBATION inactive; negative | Test System: AMES SALMONELLA TYPHIMURIUM, Strain/Indicator: TA1535, Metabolic Activation: HAMSTER, LIVER, S-9, AROCLOR 1254 (10 OR 30%), Method: PREINCUBATION inactive; negative | Test System: AMES SALMONELLA TYPHIMURIUM, Strain/Indicator: TA1535, Metabolic Activation: NONE, Method: PREINCUBATION inactive; negative | Test System: AMES SALMONELLA TYPHIMURIUM, Strain/Indicator: TA1535, Metabolic Activation: RAT, LIVER, S-9, AROCLOR 1254 (10 OR 30%), Method: PREINCUBATION inactive; negative

CC(CF)NCC(O)COc1cccc2[nH]c3ccccc3c12 (centres undefined)
inactive: [2] inactive; negative | Test System: AMES SALMONELLA TYPHIMURIUM, Strain/Indicator: TA98, Metabolic Activation: RAT LIVER S-9, AROCLOR 1254, 5%, Method: STANDARD PLATE inactive; negative
active: [3] active; positive | Test System: AMES SALMONELLA TYPHIMURIUM, Strain/Indicator: TA100, Metabolic Activation: RAT LIVER S-9, AROCLOR 1254, 5%, Method: STANDARD PLATE active; positive | [4] active; positive | Test System: AMES SALMONELLA TYPHIMURIUM, Strain/Indicator: TA1535, Metabolic Activation: RAT LIVER S-9, AROCLOR 1254, 5%, Method: STANDARD PLATE active; positive

O=C(Nc1cccc([N+](=O)[O-])c1)c1csc([N+](=O)[O-])c1
active: [2] active; positive | [3] active; positive
